Experimental data from paper PMC10099595, “Multimodal 4-arylchromene derivatives with microtubule-destabilizing, anti-angiogenic, and MYB-inhibitory activities” (Cancer Drug Resistance, 2023).
Like-named read-outs stand apart in the source and are kept apart here.

Columns and labels:
[1] = test system: EA.hy926 endothelial hybrid cells; assay: MTT antiproliferative assay, EA.hy926; assay type: cell-based; details: Homo sapiens, EA.hy 926, 72 h
Text: (§1) The following cell lines were used: 518A2 melanoma (Department of Radiotherapy, Medical University of Vienna, Austria)[15], HeLa cervix carcinoma, KBV1^Vbl (ACC-149 cervix carcinoma, MCF7 [ACC-115]) breast carcinoma, U-87 glioblastoma, HT-29 (ACC-299), HCT-116 (ACC-581) and HCT-116p53-/- colon carcinoma, EA.hy926 (ATCC® CRL-2922^TM) endothelial hybrid cells, and HDFa (ATCC® PCS-201-012^TM) adult human dermal fibroblasts. […] Only mycoplasma-free cultures were used.

518A2 melanoma cells [2] = assay: MTT antiproliferative assay, 518A2; assay type: cell-based; details: Homo sapiens, 72 h
Text: as §1

[3] = test system: HCT-116 colon carcinoma cells; assay: MTT antiproliferative assay, HCT-116; assay type: cell-based; details: Homo sapiens, 72 h
Text: as §1

[4] = test system: HCT-116 p53-/- colon carcinoma cells; assay: MTT antiproliferative assay, HCT-116 p53-/-; assay type: cell-based; details: Homo sapiens, 72 h
Text: as §1

U-87 glioblastoma cells = assay: MTT antiproliferative assay, U87; assay type: cell-based; details: Homo sapiens, 72 h
Text: as §1

[5] = test system: HT-29 colon carcinoma cells; assay: MTT antiproliferative assay, HT-29; assay type: cell-based; details: Homo sapiens, 72 h
Text: as §1

[6] = test system: KB-V1^Vbl cervix carcinoma cells; assay: MTT antiproliferative assay, KB-V1Vbl (with or without verapamil); assay type: cell-based, human; details: for IC50: Homo sapiens, KB-V1/Vbl, MTT, 72 h, without verapamil, read-out: IC50 KB-V1^Vbl; for fold lower IC50 values combined with verapamil: KB-V1^Vbl cells, verapamil 1 µM vs none; for P-gp substrate / dependence on P-gp: inferred from KB-V1^Vbl cells with and without verapamil
Text: as §1

[7] = test system: HeLa cervix carcinoma cells; assay: MTT antiproliferative assay, HeLa; assay type: cell-based; details: Homo sapiens, 72 h
Text: as §1

[8] = test system: MCF-7 breast carcinoma cells; assay: MTT antiproliferative assay, MCF-7; assay type: cell-based; details: Homo sapiens, MCF7, 72 h
Text: as §1

[9] = test system: HDFa adult human dermal fibroblasts; assay: MTT cytotoxicity assay, non-malignant HDFa; assay type: cell-based; details: 72 h, non-malignant cells
Text: as §1

zebrafish larvae = assay: Zebrafish angiogenesis assay (SIV area); assay type: in vivo; details: zebrafish larvae 24 hpf, 48 h treatment, 50-1000 nM
Experimental: Transgenic zebrafish (Tg(fli1:EGFP, casper mutant) were bred at 28 °C.[16] After fertilization, the eggs were transferred to E3-medium (5 mm NaCl, 0.17 mm KCl, 0.33 mm CaCl, 0.33 mm MgSO4, 0.01% methylene blue, pH 7.2), followed by incubation for 24 h. The chorion was manually removed, and the larvae were treated with test compounds or solvent in six-well plates (30 fish per concentration, 5 mL/well) for 48 h. The fluorescent vasculature was documented with a Leica MZ10F and Zeiss AxioCam MRrc. To quantify the angiogenesis, the sub-intestinal vein (SIV) area was measured using ImageJ and expressed as means ± SD with the control set to 100%. The significance of SIV reduction through substance treatment was assessed using one-way analysis of variance (ANOVA), *P < 0.05; **P < 0.01; ***P < 0.001; ****P < 0.0001, with Dunnett´s multiple comparison test (GraphPad Prism 9).

MYB = biological target: T1, MYB (Homo sapiens, UniProt P10242, K503R/K527R); assay: Luciferase-dependent MYB activity assay (HEK-MYB-Luc reporter cells); assay type: cell-based; details: HEK-293 reporter cells, 16 h; read-out: IC50 inhibition of MYB activity
T1 construct: expressed in transfected cells; host or cells: HEK-293 (HEK-MYB-Luc reporter cell line)
Experimental: Compounds were tested using the HEK-MYB-Luc reporter cell line, which allows a doxycycline-dependent induction of MYB expression and harbors an MYB-dependent luciferase reporter plasmid, as previously described. After 16 h of substance treatment (0.0001-3 µM), luciferase activities were analyzed as described.

[10] = test system: tested cancer and hybrid cell lines; assay: MTT assay, average over all tested cancer and hybrid cell lines
Experimental: An 3-(4, 5-dimethylthiazol-2-yl)-2, 5-diphenyl tetrazolium bromid (MTT) assay was used for antiproliferative studies. Cancer cells (5 × 10^4 cells/mL, 100 μL/well) were placed in 96-well plates (10 × 10^4 cells/mL for HDFA and U87 cells), and the cells were incubated for 24 h at 5% CO2 and 95% humidity. Then, cells were treated with test compounds (at various concentrations) or solely with DMSO as a negative control for 72 h. Then, 12.5 μL of a 0.5% MTT solution in phosphate-buffered saline (PBS) was added to the cells, followed by incubation for 2 h at 37 °C. After centrifugation of the plates (300 × g, 5 min, 4 °C), the medium was discarded, and 25 μL of DMSO containing 10% SDS and 0.6% acetic acid was added, followed by incubation at 37 °C for at least 1 h. Formazan absorbance at λ = 570 nm was measured using a Tecan infinite F200 microplate reader and corrected for the background (λ = 630 nm). The 50% inhibitory concentration (IC50) values were calculated from dose-response curves (means ± SD, four independent experiments) compared to DMSO-treated control cells, which were set to 100%. GraphPad Prism 9 was used for curve-fitting.
The selectivity index (SI) was calculated as a measure of selectivity toward cancer cells compared to non-malignant cells.

518A2 melanoma cells [11] = assay: Cell-cycle analysis (FACS, propidium iodide); assay type: cell-based, human; details: 518A2 cells, 25 nM, 24 h
Experimental: 518A2 melanoma cells (10 × 10^4 cells/mL, 3 mL/well) were cultivated in six-well plates for 24 h. After the treatment with test compounds (10 and 25 nm), C-A4 (10 and 25 nm), or DMSO (vehicle) for an additional 24 h, the cells were trypsinized, centrifuged (300 × g, 5 min, 4 °C), and fixed in 70% EtOH for min. 24 h. For FACS measurement, cells were washed in PBS and stained with propidium iodide solution (50 µg/mL PI, 50 µg/mL RNase A in 0.1% sodium citrate) for 30 min at 37 °C. The DNA content of at least 10000 single cells was determined using a Beckmann Coulter Cytomics FC500 flow cytometer (λex = 488 nm, λem = 570 nm). CXP software (Beckman Coulter) was used to analyze the cells in the cell cycle phases (sub-G1, G1, S, G2/M).

[12] = Homo sapiens, read-out: Average IC50 value of the tested cancer and hybrid cell lines (Ø IC50), average of all cell lines of Table 2

T1 sequence (P10242 whole entry K503R/K527R): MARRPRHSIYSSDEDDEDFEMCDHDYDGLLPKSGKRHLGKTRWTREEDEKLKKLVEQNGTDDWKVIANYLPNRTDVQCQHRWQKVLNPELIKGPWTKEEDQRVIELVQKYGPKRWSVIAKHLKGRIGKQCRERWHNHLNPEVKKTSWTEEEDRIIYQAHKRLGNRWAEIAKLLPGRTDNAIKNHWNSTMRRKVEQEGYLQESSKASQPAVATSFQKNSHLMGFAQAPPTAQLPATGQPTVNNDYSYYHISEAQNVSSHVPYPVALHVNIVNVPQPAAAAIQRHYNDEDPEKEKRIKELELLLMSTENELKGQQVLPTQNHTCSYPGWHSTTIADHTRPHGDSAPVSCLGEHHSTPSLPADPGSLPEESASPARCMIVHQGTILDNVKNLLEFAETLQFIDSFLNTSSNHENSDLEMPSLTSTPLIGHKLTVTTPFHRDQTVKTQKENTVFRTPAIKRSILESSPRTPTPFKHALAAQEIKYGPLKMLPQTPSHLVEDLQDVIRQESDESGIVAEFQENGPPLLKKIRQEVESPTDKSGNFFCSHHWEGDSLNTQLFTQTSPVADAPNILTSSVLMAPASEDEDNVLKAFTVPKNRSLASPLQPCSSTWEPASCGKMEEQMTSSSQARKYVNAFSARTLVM

Structure (SMILES) | IC50 [1] [nM] | IC50 (518A2 melanoma cells [2]) [nM] | IC50 [3] [nM] | IC50 [4] [nM] | IC50 (U-87 glioblastoma cells) [nM] | IC50 [5] [nM] | IC50 [6] [nM] | fold lower IC50 values combined with verapamil [6] [fold] | IC50 [7] [nM] | IC50 [8] [nM] | IC50 [9] [nM] | effect on SIV growth (angiogenesis) (zebrafish larvae) | IC50 (MYB) [nM] | IC50 [10, 12] [nM] | G2/M cell-cycle arrest (in words) (518A2 melanoma cells [11]) | P-gp substrate / dependence on P-gp [6] | IC50 ([10]; read-out: Average IC50 value of the tested cancer and hybrid cell lines (Ø IC50), average of all cell lines of Table 2) [nM]
COc1ccc2c(c1)OC(N)=C(C#N)C2c1cc(Br)c(OC)c(OC)c1 (stereo not shown) [2B] | 0.8 ± 0.09 | 6 ± 0.2 | 100 ± 10 | 30 ± 3 | 80 ± 5 | 200 ± 20 | 10 ± 1 | 14 | 2 ± 0.2 | 100 ± 8 | > 50000 | no SIV decrease | 1.28 ± 0.3 | 49 | – | – | –
COc1ccc2c(c1)OC(N)=C(C#N)C2c1cc(I)c(OC)c(OC)c1 (stereo not shown) [2C, 2-Amino-3-cyano-4-(3’-iodo-4’, 5’-dimethoxyphenyl)-7-methoxy-4H-chromene] | 60 ± 5 | 20 ± 2 | 70 ± 1 | 6 ± 0.7 | 25 ± 2 | 200 ± 20 | 60 ± 5 | 20 | 10 ± 0.9 | 20 ± 1 | > 50000 | no SIV decrease | 1.56 ± 0.2 | 47 | – | – | –
COc1ccc2c(c1)OC(N)=C(C#N)C2c1cc(Cl)c(OC)c(Cl)c1 (stereo not shown) [2D, 2-Amino-3-cyano-4-(3’, 5’-dichloro-4’-methoxyphenyl)-7-methoxy-4H-chromene] | 1100 ± 70 | 2100 ± 200 | 2500 ± 200 | 1900 ± 200 | 3900 ± 400 | 1400 ± 100 | 2100 ± 100 | – | 700 ± 50 | 2400 ± 300 | – | – | – | > 500 | only a slight increase in G2/M phase cells | – | –
COc1ccc2c(c1)OC(N)=C(C#N)C2c1ccccc1F (stereo not shown) [2G, 2-Amino-3-cyano-4-(2’-fluorophenyl)-7-methoxy-4H-chromene] | 900 ± 90 | 700 ± 40 | 200 ± 20 | 300 ± 40 | 3200 ± 100 | 200 ± 10 | 700 ± 20 | – | 400 ± 60 | 500 ± 40 | – | – | – | > 500 | – | – | –
COc1ccc2c(c1)OC(N)=C(C#N)C2c1ccc(F)c(F)c1 (stereo not shown) [2I, 2-Amino-3-cyano-4-(3’, 4’-difluorophenyl)-7-methoxy-4H-chromene] | 700 ± 10 | 700 ± 5 | 800 ± 6 | 600 ± 6 | 3600 ± 500 | 800 ± 30 | 700 ± 30 | 12 | 600 ± 30 | 700 ± 100 | – | – | – | – | – | – | –
COc1ccc2c(c1)OC(N)=C(C#N)C2c1ccc(F)c(Cl)c1 (stereo not shown) [2J, 2-Amino-3-cyano-4-(3’-chloro-4’-fluorophenyl)-7-methoxy-4H-chromene] | 400 ± 20 | 400 ± 10 | 300 ± 30 | 400 ± 40 | 1200 ± 70 | 500 ± 50 | 300 ± 20 | – | 100 ± 6 | 150 ± 20 | – | – | – | 396 | – | substrate of P-gp | > 500
COc1ccc2c(c1)OC(N)=C(C#N)C2c1ccc(Cl)c(Cl)c1 (stereo not shown) [2K, 2-Amino-3-cyano-4-(3’, 4’-dichlorophenyl)-7-methoxy-4H-chromene] | 600 ± 80 | 600 ± 7 | 300 ± 10 | 800 ± 20 | 8500 ± 300 | 1900 ± 100 | 1300 ± 100 | – | 800 ± 70 | 1000 ± 50 | – | – | – | > 500 | – | – | –
COc1ccc2c(c1)OC(N)=C(C#N)C2c1ccc(F)cc1F (stereo not shown) [2L, 2-Amino-3-cyano-4-(2’, 4’-difluorophenyl)-7-methoxy-4H-chromene] | 200 ± 10 | 500 ± 30 | 2500 ± 40 | 1600 ± 160 | 5100 ± 500 | 500 ± 50 | 3800 ± 400 | – | 1500 ± 70 | > 50000 | – | – | – | > 500 | – | – | –
COc1ccc2c(c1)OC(N)=C(C#N)C2c1cccc(F)c1F (stereo not shown) [2M, 2-Amino-3-cyano-4-(2’, 3’-difluorophenyl)-7-methoxy-4H-chromene] | 400 ± 10 | 300 ± 10 | 500 ± 50 | 200 ± 8 | 400 ± 60 | 200 ± 20 | 900 ± 90 | – | 90 ± 2 | 200 ± 30 | – | – | – | 330 | – | P-gp substrates | –
COc1ccc2c(c1)OC(N)=C(C#N)C2c1cc(F)ccc1F (stereo not shown) [2N, 2-Amino-3-cyano-4-(2’, 5’-difluorophenyl)-7-methoxy-4H-chromene] | 4700 ± 900 | 90 ± 60 | 500 ± 50 | 200 ± 10 | 500 ± 100 | 400 ± 30 | 700 ± 70 | – | 200 ± 20 | 300 ± 7 | – | – | – | > 500 | – | P-gp substrates | –
COc1ccc2c(c1)OC(N)=C(C#N)C2c1cc(F)cc(F)c1 (stereo not shown) [2O] | 40 ± 1 | 60 ± 6 | 1400 ± 50 | 40 ± 3 | 100 ± 10 | 70 ± 8 | 20 ± 2 | – | 40 ± 4 | 400 ± 60 | – | – | – | 203 | – | no dependence on P-gp | –
COc1ccc2c(c1)OC(N)=C(C#N)C2c1cc(F)c(F)c(F)c1 (stereo not shown) [2P, 2-Amino-3-cyano-4-(3’, 4’, 5’-trifluorophenyl)-7-methoxy-4H-chromene] | 400 ± 40 | 300 ± 30 | 300 ± 20 | 300 ± 20 | 1100 ± 90 | 200 ± 5 | – | – | 100 ± 20 | 400 ± 50 | – | – | – | 330 | – | no dependence on P-gp | –
COc1ccc2c(c1)OC(N)=C(C#N)C2c1cccc(S(F)(F)(F)(F)F)c1 (stereo not shown) [2Q, 2-Amino-3-cyano-4-(3’-pentafluorothiophenyl)-7-methoxy-4H-chromene] | 600 ± 20 | 300 ± 10 | 700 ± 40 | 2900 ± 10 | 900 ± 60 | 400 ± 30 | 1900 ± 100 | – | 400 ± 4 | 800 ± 30 | – | – | – | > 500 | – | – | –
COc1ccc2c(c1)OC(N)=C(C#N)C2c1cccc([N+](=O)[O-])c1 (stereo not shown) [2R] | 300 ± 9 | 30 ± 2 | 300 ± 30 | 200 ± 20 | 900 ± 50 | 200 ± 20 | 30 ± 0.4 | – | 300 ± 20 | 10 ± 0.8 | – | – | – | 227 | – | – | –
